Measured values reported in US5830885A, “Antiproliferative vitamin D3 hybrids” (The Johns Hopkins University, priority 1996, dated 1998).
“And” between values parts separate entries of the source, which are not always exact repeats. Identical values can stand only once. “Also recorded” adds a separate entry of the source.

Tests used:
calf thymus VDR = target: T1, calf thymus VDR (Bos taurus, UniProt Q28037); experiment: VDR binding assay, displacement of [^3 H]-1,25(OH)2 D3 from VDR; conditions: for binding to the 1,25(OH)2-vitamin D3 receptor (VDR), % of calcitriol's binding / VDR binding affinity relative to that of calcitriol: relative to calcitriol; for Amount Bound (amount that results in 50% displacement of [^3 H]-1,25(OH)2 D3 from VDR): Table 6, calf thymus VDR; for times less strongly bound to VDR than 1,25(OH)2 D3: relative to 1,25(OH)2 D3
T1 construct: from the calf thymus VDR; from tissue; host or cells: calf thymus
T1 sequence (Q28037 1-426): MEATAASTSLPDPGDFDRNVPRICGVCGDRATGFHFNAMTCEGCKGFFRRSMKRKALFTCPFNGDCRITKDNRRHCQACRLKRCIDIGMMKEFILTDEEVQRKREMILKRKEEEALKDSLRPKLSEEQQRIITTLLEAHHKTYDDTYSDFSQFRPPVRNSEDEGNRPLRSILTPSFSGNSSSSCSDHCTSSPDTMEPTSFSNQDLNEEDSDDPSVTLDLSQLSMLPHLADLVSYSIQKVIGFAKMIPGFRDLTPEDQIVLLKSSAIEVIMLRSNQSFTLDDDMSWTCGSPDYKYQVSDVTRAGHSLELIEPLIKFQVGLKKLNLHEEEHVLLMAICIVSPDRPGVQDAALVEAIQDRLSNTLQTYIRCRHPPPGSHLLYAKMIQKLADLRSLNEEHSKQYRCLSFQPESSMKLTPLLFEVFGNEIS
Description: The VDR binding assay was performed according to the procedure of Reinhardt, T. A., Horst, R. L., Orf, J. W., Hollis, B. W., J. Clin. Endocrin. Metab., 58: 91-98 (1984), the entire contents of which are hereby incorporated herein by reference.

cell proliferation = experiment: Anti-proliferative activity (summary statements); format: cell-based; conditions: compared with calcitriol or in general words
[1] = Crystallization behaviour; format: physicochemical
[2] = Solubility in organic solvents; format: physicochemical; conditions: methylene chloride, chloroform, methanol; for YA/YB also EtOAc, acetone
calcium channels = experiment: Calcium channel opening assay; format: cell-based; conditions: Bay K 1 μM, in the experiments of each compound's line
[3] = system: Human lymphoma cells U 937; conditions: relative to calcitriol = 1; cited from earlier work
[4] = system: Human lymphoma cells U 937; conditions: relative to calcitriol = 1; cited from earlier work; remark: listed apart in the source
Lewis rats = conditions: relative to calcitriol = 1; cited from earlier work
[5] = in vivo; cited from earlier work
[6] = system: murine keratinocyte cells (cell line PE); experiment: Growth inhibition of PE keratinocytes (MTT assay); format: cell-based; conditions: FIG. 7
Description: The compounds were tested for growth inhibition of murine keratinocyte cells (cell line PE) and for the inhibition of TPA-induced ornithine decarboxylase (ODC) activity.
The PE cell line culture medium used in the tests consisted of Eagle's minimal essential medium without calcium chloride supplemented with 8% chelexed fetal calf serum and 1% antibiotic-antimycotic and the addition of CaCl2 to 0.05 mM Ca^++.
PE cells were seeded at a density of 5,000 cells/well in 50 μl medium into 96-well microtiter plates. […] The plates were fed once at 48 hours, with the re addition of the vitamin D3 analogues at this time. At 24 hour intervals following the initial treatment of the cells with compounds, 0.1 mg ([…] of a 2 mg/ml solution) of MTT was added to the plates. After 4 hours, the MTT was removed and DMSO added to dissolve the blue formazan dye. Using a microtiter plate reader, the A505 was then determined and cell number calculated from blank-subtracted absorbance values.

HL-60 cells = experiment: Growth inhibition of HL-60 cells; format: cell-based; conditions: FIG. 8; YA and YB 10^-7 M, others 10^-6 M
Text: YA and YB were at concentrations of 10^-7 M; the other compounds were at concentrations of 10^-6 M.

keratinocyte = experiment: Dose-response effects on keratinocyte proliferation (FIGS. 3, 4, 9, 10); format: cell-based; conditions: cell numbers at 0 and 96 hours
Description: N0 represents the number of cells at zero hours and N1 represents the number of cells at 96 hours.

Which results are given for `C=C1/C(=C\C=C2/CCC[C@]3(C)[C@@H]([C@H](C)CCCC(C)(C)O)CC[C@@H]23)C[C@H](O)C[C@H]1CO` [(+)-3, 1β-hydroxymethyl-3β-norhydroxy-3α, 25-dihydroxyvitamin D3]?
binding to the 1,25(OH)2-vitamin D3 receptor (VDR), % of calcitriol's binding (calf thymus VDR): ≤ 2%; anti-proliferative activity (cell proliferation): did not change the anti- proliferative or cell growth inhibitory activity; ease of crystallization [1]: very difficult to crystallize

With `C=C1/C(=C\C=C2/CCC[C@]3(C)[C@@H]([C@H](C)CCCC(C)(C)O)CC[C@@H]23)C[C@@H](O)C[C@@H]1CO` [(-)-2, 1α-hydroxymethyl-25-hydroxyvitamin D3] as the compound, how does the “binding to the 1,25(OH)2-vitamin D3 receptor (VDR), % of calcitriol's binding” value (calf thymus VDR) read?
The value was ≤ 2%.

What about the “solubility in organic solvents” value [2] of the same compound?
The value was “unexpectedly poor solubility; also recorded: only sparingly soluble”.

And the anti-proliferative activity (cell proliferation)?
Its anti-proliferative activity is “did not change the anti- proliferative or cell growth inhibitory activity”.

What about the ease of crystallization [1] of the same compound?
The ease of crystallization was “easily crystallized”.

For `COC(=O)C1=C(C)NC(C)=C([N+](=O)[O-])C1c1ccccc1C(F)(F)F` (stereo not shown) [Bay K, reference compound], which “Average peak shift compared to control” value (calcium channels) is on record?
The value was 28.3 ± 5.6 mV and 29.0 ± 1.4 mV and 26.3 ± 4.5 mV and 27.9 ± 5.3 mV.

With `C=C1/C(=C\C=C2/CCC[C@]3(C)[C@@H]([C@H](C)/C=C/C=C/C(O)(CC)CC)CC[C@@H]23)C[C@@H](O)C[C@@H]1O` [EB1089] as the compound, how does the “Relative Potency, Inhibition of Proliferation” value [3] read?
Its value is 68.

What about the “Relative Potency, Induction of Differentiation” value [4] of the same compound?
Its value is 67.

What about the “Relative Potency, Calcemic Effects” value (Lewis rats) of the same compound?
The value was 0.4.

With `C=C1/C(=C\C=C2/CCC[C@]3(C)[C@@H]([C@@H](C)CSc4cccc(C(C)(C)O)c4)CC[C@@H]23)C[C@@H](O)C[C@@H]1O` [GS 1500] as the compound, how does the serum half-life [5] read?
Its serum half-life is “very short serum half-life”.

Which results are given for `C=C1/C(=C\C=C2/CCC[C@]3(C)[C@@H]([C@@H](C)COCCCC(C)(C)O)CC[C@@H]23)C[C@@H](O)C[C@@H]1CO` [JK 276-1]?
inhibition of proliferation of PE cells [6]: inhibited proliferation of PE cells; Amount Bound (amount that results in 50% displacement of [^3 H]-1,25(OH)2 D3 from VDR) (calf thymus VDR): 1650 ng; VDR binding affinity relative to that of calcitriol (calf thymus VDR): less than 10^-3; inhibition of growth of HL-60 cells (HL-60 cells): more modest effect

With `C=C1/C(=C\C=C2/CCC[C@]3(C)[C@@H]([C@@H](C)COCCCC(C)(C)O)CC[C@@H]23)C[C@H](O)C[C@H]1CO` [JK 276-2] as the compound, how does the “inhibition of proliferation of PE cells” value [6] read?
The value was “inhibited proliferation of PE cells; also recorded: at much lower concentrations than their corresponding 1α,3β-stereoisomers”.

What about the “Amount Bound (amount that results in 50% displacement of [^3 H]-1,25(OH)2 D3 from VDR)” value (calf thymus VDR) of the same compound?
Its value is 22.5 ng.

And the “times less strongly bound to VDR than 1,25(OH)2 D3” value (calf thymus VDR)?
The value was “about 1500 times”.

And the “VDR binding affinity relative to that of calcitriol” value (calf thymus VDR)?
The value was “less than 10^-3”.

What about the “inhibition of growth of HL-60 cells” value (HL-60 cells) of the same compound?
Its value is “even more effective than YB in inhibiting growth”.

Which “inhibition of proliferation of PE cells” value [6] does the source give for `C=C1/C(=C\C=C2/CCC[C@]3(C)[C@@H]([C@@H](C)CSc4cccc(C(C)(C)O)c4)CC[C@@H]23)C[C@@H](O)C[C@@H]1CO` [JK 277-1] here?
The value was “inhibited proliferation of PE cells”.

And the “Amount Bound (amount that results in 50% displacement of [^3 H]-1,25(OH)2 D3 from VDR)” value (calf thymus VDR)?
Its value is 1450 ng.

And the “VDR binding affinity relative to that of calcitriol” value (calf thymus VDR)?
Its value is “less than 10^-3”.

What about the “inhibition of growth of HL-60 cells” value (HL-60 cells) of the same compound?
The value was “more modest effect”.

What does the source list for `C=C1/C(=C\C=C2/CCC[C@]3(C)[C@@H]([C@@H](C)CSc4cccc(C(C)(C)O)c4)CC[C@@H]23)C[C@H](O)C[C@H]1CO` [JK 277-2]?
inhibition of proliferation of PE cells [6]: inhibited proliferation of PE cells; also recorded: at much lower concentrations than their corresponding 1α,3β-stereoisomers; Amount Bound (amount that results in 50% displacement of [^3 H]-1,25(OH)2 D3 from VDR) (calf thymus VDR): 40 ng; times less strongly bound to VDR than 1,25(OH)2 D3 (calf thymus VDR): ~3750 times; VDR binding affinity relative to that of calcitriol (calf thymus VDR): less than 10^-3; inhibition of growth of HL-60 cells (HL-60 cells): even more effective than YB in inhibiting growth

For `C=C1/C(=C\C=C2/CCC[C@]3(C)C([C@H](C)CC#CC(C)(C)O)=CC[C@@H]23)C[C@@H](O)C[C@@H]1CO` [JK III 7-1], which “effect on keratinocyte proliferation” value (keratinocyte) is on record?
The value was “appears ineffective in reducing cell proliferation”.

For `C=C1/C(=C\C=C2/CCC[C@]3(C)C([C@H](C)CC#CC(C)(C)O)=CC[C@@H]23)C[C@H](O)C[C@H]1CO` [JK III 7-2], which “VDR binding affinity relative to that of calcitriol” value (calf thymus VDR) is on record?
Its value is ~ 10^-3.

What about the “effect on keratinocyte proliferation” value (keratinocyte) of the same compound?
Its value is “equal to or greater than calcitriol”.

What about the anti-proliferative activity (cell proliferation) of the same compound?
The anti-proliferative activity was “comparable to that of calcitriol”.

For `C=C1/C(=C\C=C2/CCC[C@]3(C)[C@@H]([C@H](C)/C=C/C=C/C(O)(CC)CC)CC[C@@H]23)C[C@H](O)C[C@H]1CO` [MCW 068-Y-EE], which “VDR binding affinity relative to that of calcitriol” value (calf thymus VDR) is on record?
The value was ~ 10^-3.

And the “effect on keratinocyte proliferation” value (keratinocyte)?
Its value is “much greater anti proliferative activity than MCW 068-Y-ED”.

And the anti-proliferative activity (cell proliferation)?
The anti-proliferative activity was “comparable to that of calcitriol”.

Which “Relative Potency, Inhibition of Proliferation” value [3] does the source give for `C=C1/C(=C\C=C2/CCC[C@]3(C)[C@@H]([C@H](C)/C=C/[C@@H](O)C4CC4)CC[C@@H]23)C[C@@H](O)C[C@@H]1O` [Mc-903 (Calcipotriol)] here?
Its value is 1.3.

What about the “Relative Potency, Induction of Differentiation” value [4] of the same compound?
The value was 1.

What about the “Relative Potency, Calcemic Effects” value (Lewis rats) of the same compound?
The value was < 0.01.

For `C=C1/C(=C\C=C2/CCC[C@]3(C)[C@@H]([C@@H](C)OCCCC(O)(CC)CC)CC[C@@H]23)C[C@H](O)C[C@H]1CCF` [RHH 045 B, 1α- and 1β-(2-Fluoroethyl)-25-hydroxyvitamin D3 Homologs], which “VDR binding affinity relative to that of calcitriol” value (calf thymus VDR) is on record?
Its value is ~ 10^-3.

And the “effect on keratinocyte proliferation” value (keratinocyte)?
The value was “far more effective in inhibiting cell proliferation”.

And the anti-proliferative activity (cell proliferation)?
Its anti-proliferative activity is “comparable to that of calcitriol”.
